Legend:
[1] = tested on: splenocytes from HLA-A11/K^b transgenic mice; assay: IFN-γ ELISPOT of peptide-stimulated splenocytes from DNA plasmid-immunized mice; assay type: cell-based, mouse; conditions: splenocytes of mice immunized i.m. with plasmid pE3/19K/HPV18E6E7, stimulated with the peptide; FIG. 7A
Experimental: (§1) A 96-well plate, having nitrocellulose membrane inserted in each well, was coated with […] anti-IFN-γ antibody (clone MAB1-D1K, 10 μg/ml in 1×PBS, from Mabtech, Macka, Sweden) and was incubated at 4° C. for 24 hours. The plate was washed four times with PBS, and then incubated with […] per well RPMI medium containing 10% fetal bovine serum (FBS) for 1-3 hours. Next, splenocytes were suspended in RPMI containing 10% FBS and 1×10^5 or 5×10^5 splennocytes (200 μl) were added to each well with or without A11VVY. The ELISPOT assay was performed in triplicate wells for each experimental condition. The plate was incubated in an incubator supplied with 5% CO2 at 37° C. for 2 hours. After being washed for 2-3 times, the plate was incubated with avidin-peroxidase complex reagent for one hour at room temperature and then washed three times with 0.05% (w/v) Tween 20 in PBS and three times with PBS. 100 μl aminoethylcarbazole staining solution were then added to each well to develop stained spots. After 4-6 minutes, the plate was washed with running tap water to stop the reaction of developing the spots, which were counted by a computational image analysis.
Plasmid pE3/19K/HPV18E6E7 was constructed following the conventional recombinant technology. This plasmid contains the E3/19K leader sequence and a nucleotide sequence encoding a fusion protein composed of the H-2K^b-restricted CTL epitope SII (derived from ovalbumin) and HPV18E6E7 polypeptide, which includes epitopes VVY, SIP, and ATL.
(§2) Seven to ten days after the second immunization, the mice were sacrificed and their splenocytes collected.
The splenocytes werestimulated with peptide VVY, SII, SIP, ATL, or a control peptide and the levels of IFN-γ secreted thereby were determined with the Enzyme-linked immunospot (ELISPOT) assay described in Example 1 above.

[2] = tested on: ^51Cr-labeled T2/HLA-A11 cells; assay: Chromium release assay with splenocytes from peptide-immunized mice; assay type: in vivo, mouse; conditions: HLA-A11 transgenic mice immunized twice with the peptide; FIG. 6B
Experimental: (§3) Next, the CTL effect induced by peptide VVY was examined as follows. HLA-A11 transgenic mice were immunized twice with peptide VVY, SIP, or ATL, all of which were derived from HPV 18, following the procedures described above in this Example. Splenocytes (2×10^6/ml) isolated from the immunized mice were cultured with 10 μg/ml of either VVY or A11-SCC and 10 U/ml rIL-2 for at 37+ C. for 5 days. A standard chromium release assay was performed to determine cytolytic activity. In brief, T2/HLA-A11 cells were labeled with 100 μCi of ^51Cr (PerkinElmer, Waltham, Mass., USA) for 1.5 hrs at 37° C. and washed afterwards three times with cold RPMI. The cultured splenocytes, used as effector cells, were mixed with 5×10^3 the ^51Cr-labeled T2/HLA-A11 cells at various ratios in triplicate wells in a U-bottom 96-well plate (Nunc, Rochester, N.Y., USA). After 4-5 hrs incubation, supernatants from each well were collected and the radioactivity contained therein was measured using a γ-counter (PARKARD, Ramsey, Mich., USA). The specific lysis rate was determined following the formula: Specific lysis rate (%)=(Samplecpm−Spontaneous releasecpm)/(Maximum releasecpm−Spontaneous releasecpm)%.

[3] = tested on: T cells of HLA-A24 transgenic mice; assay: IFN-γ secretion of splenocytes from peptide-immunized HLA-A24 transgenic mice; assay type: in vivo, mouse; conditions: HLA-A24 transgenic mice immunized with peptide; FIG. 5B
Experimental: FIG. 5B is a diagram showing IFN-γ secretion of splenocytes obtained from HLA-A24 transgenic mice immunized with peptide […] (A24 CYE, SEQ ID NO:5) or a control peptide.
as §1

[4] = tested on: HLA A24 heavy chain and β2-microglobulin; assay: MHC-peptide complex formation assay (ELISA), HLA A24; assay type: binding
Experimental: The HLA A24 heavy chain and β2-microglobulin were expressed and purified following the method described above. These proteins were incubated with synthetic peptides containing potential CTL-epitopes identified by the computational programs mentioned in Example 1. The formation of HLA A24-β2-peptide complexes was determined by the ELISA assay also described in Example 1 above.

[5] = tested on: ^51Cr-labeled T2/HLA-A11 cells; assay: Chromium-release assay, peptide-specific CTL effects after DNA plasmid immunization; assay type: cell-based, mouse; conditions: mice immunized with plasmid pE3/19K/HPV18E6E7; FIG. 7B
Experimental: as §3, §2
Next, peptide-specific CTL effects were examined by the chromium-release assay described in Example 4 above.

[6] = tested on: CD8^+ T cells of C57BL/6-HLA-A11 transgenic mice; assay: HLA-A11-peptide tetramer staining of CD8+ T cells from peptide-immunized mice; assay type: in vivo, mouse; conditions: HLA-A11 transgenic mice immunized s.c. twice; splenocytes cultured 5 days with peptide and rIL-2; FIG. 6A
Experimental: C57BL/6-HLA-A11 transgenic mice were immunized s.c. twice with peptide VVY (SEQ ID NO:1) or control peptide SSC (SEQ ID NO:12) together with a T helper cell epitope […] (SEQ ID NO:17), and incomplete adjuvant ISA-51. Seven days after the second immunization, splenocytes were harvested from the immunized mice, cultivated in vitro in the presence of peptide VVY or SSC (10 μg/ml) and rIL-2 (10 U/ml) for five days. The cells were then double stained with HLA-A11-peptide tetramer VVY-tet-PE or SCC-tet-PE and a FITC-conjugated anti-CD8 antibody to detect CD8^+ T cells that bind to either VVY or SSC.
The tetramers were prepared as follows. Purified HLA-A11 heavy chains and β2-microglobulins were refolded in the presence of VVY or SSC in a refolding buffer containing 100 mM Tris-HCl (pH 8), 400 mM L-arginine, 2 mM EDTA, 5 mM reduced glutathione, 0.5 mM oxidized glutathione for 48 hrs at 4° C. […]
The tetramers thus prepared were incubated with the peptide-challenged T cells in a FACS staining buffer for 20 min at room temperature and a FITC conjugated anti-CD8 antibody was then added to the incubation system and kept on ice for 20 min. The stained cells were analyzed by flow cytometry (FACScalibur BD Bioscience, Calif., USA) in the presence of 1 μg/ml of propidium iodide (Sigma, Mo., USA) to exclude dead cells.

[7] = tested on: splenocytes from C57BL/6-HLA-A11 transgenic mouse; assay: IFN-γ ELISPOT of splenocytes from peptide-immunized HLA-A11 transgenic mouse; assay type: in vivo; conditions: HLA-A11 transgenic mouse immunized s.c. with peptide, ISA-51 and T helper epitope; FIG. 5A
Experimental: C57BL/6-HLA-A11 transgenic mouse, derived from the Animal Technology Institute in Taiwan, was used in this study. 50 μg synthetic peptides having the amino acid sequence of […] (A11VVY; SEQ ID NO:1) were formulated with incomplete adjuvant ISA-51 in the presence of a peptide […] (SEQ ID NO:17), which contains a T helper cell epitope derived from hepatitis B virus. The composition thus formed was injected subcutaneously into the HLA-A11 transgenic mouse two times every two weeks. Seven days after the final injection, splenotyes from the immunized mouse were isolated and cultured in a medium containing A11VVY. The level of IFN-γ secreted to the medium was determined by Enzyme-linked immunospot (ELISPOT) as described below.
A 96-well plate, having nitrocellulose membrane inserted in each well, was coated with […] anti-IFN-γ antibody (clone MAB1-D1K, 10 μg/ml in 1×PBS, from Mabtech, Macka, Sweden) and was incubated at 4° C. for 24 hours. The plate was washed four times with PBS, and then incubated with […] per well RPMI medium containing 10% fetal bovine serum (FBS) for 1-3 hours. […] After 4-6 minutes, the plate was washed with running tap water to stop the reaction of developing the spots, which were counted by a computational image analysis.

[8] = target: HLA A11 heavy chain (His-Tag fusion) with β2-microglobulin (human); assay: MHC-peptide complex formation assay, ELISA; relative to positive and negative control O.D.

Substance: ATLQDIVLH (listed as Human papillomavirus) [peptide derived from HPV 18]
- induction of IFN-γ secretion [1]: not
- CTL effects (specific lysis) [2]: not

Substance: CYEQLGDSS (listed as Human papillomavirus) [24-32 of HPV 52 E7]
- IFN-γ secretion by peptide-specific T cells [3]: incuded A24CYE-specific T cells to secrete IFN-γ
- HLA A24 restriction (HLA A24-β2-peptide complex formation) [4]: HLA A24 restricted epitopes

Substance: RAHYNIVTF (listed as Human papillomavirus) [control peptide]
- peptide-specific CTL effects [5]: not
- induction of IFN-γ secretion [1]: not

Substance: SIINFEKL (listed as Mus musculus)
- peptide-specific CTL effects [5]: not
- induction of IFN-γ secretion [1]: induced IFN-γ secretion

Substance: SIPHAACHK (listed as Human papillomavirus) [peptide derived from HPV 18]
- induction of IFN-γ secretion [1]: not
- CTL effects (specific lysis) [2]: not

Substance: SSCSSCPLSK (listed as Human herpesvirus) [A11-SCC, positive control A11-restricted peptide derived from EBV LMP2 protein]
- induction of VVY-specific CD8^+ T cells (tetramer staining) [6]: did not show this effect

Substance: VDLLCHEQL (listed as Human papillomavirus) [23-31 of HPV 18 E7]
- HLA A24 restriction (HLA A24-β2-peptide complex formation) [4]: HLA A24 restricted epitopes

Substance: VVYRDSIPH (listed as Human papillomavirus) [54-62 of HPV 18 E6]
- peptide-specific CTL effects [5]: induced CTL effects
- induction of VVY-specific CD8^+ T cells (tetramer staining) [6]: induced VVY-specific CD8^+ T cells
- induction of IFN-γ secretion [1]: induced IFN-γ secretion
- IFN-γ secreting splenocytes [7]: large amount
- CTL effects (specific lysis) [2]: induced CTL effects

Substance: WLSLLVPFV [A2-restricted peptide, used as control peptide for immunization]
- IFN-γ secreting splenocytes [7]: little

Substance: … (54-62 of HPV 18 E6) (peptide)
- relative binding % [8]: 30%

Substance: … (64-72 of HPV 52 E6) (peptide)
- relative binding % [8]: 30%

Substance: … (94-102 of HPV 58 E6) (peptide)
- relative binding % [8]: 30%
